From US10188108B2, “Fused bicyclic heterocycle derivatives as pesticides” (BAYER CROPSCIENCE AKTIENGESELLSCHAFT, priority 2015, dated 2019)
Like-named read-outs stand apart in the source and are kept apart here.

How the values were obtained:
[1] = log P by HPLC on a reversed-phase column (C 18), EEC Directive 79/831 Annex V.A8; assay type: physicochemical; conditions: for chromatographic logP: reversed-phase HPLC column (C 18); for LOGP_NEUTRAL: pH 7.8, 0.001 molar aqueous ammonium hydrogencarbonate/acetonitrile
Protocol: The log P values are measured according to EEC Directive 79/831 Annex V.A8 by HPLC (high-performance liquid chromatography) on a reversed-phase column (C 18). Temperature: 55° C.
The LC-MS determination in the acidic range is effected at pH 2.7 using 0.1% aqueous formic acid and acetonitrile (contains 0.1% formic acid) as eluents; linear gradient from 10% acetonitrile to 95% acetonitrile. Called log P (HCOOH) in the table.
LC-MS determination in the neutral range is effected at pH 7.8 with 0.001 molar aqueous ammonium hydrogencarbonate solution and acetonitrile as eluents; linear gradient from 10% acetonitrile to 95% acetonitrile. Called log P (neutral) in the table.
Calibration is carried out using unbranched alkan-2-ones (having 3 to 16 carbon atoms) with known log P values (log P values determined on the basis of the retention times by linear interpolation between two successive alkanones).

[2] = test system: Spodoptera frugiperda; assay: Spodoptera frugiperda - spray test; assay type: in vivo; conditions: 500 g/ha, after 7 days, caterpillars on maize leaf discs
Protocol: (§1) • Solvent: 78.0 parts by weight of acetone • 1.5 parts by weight of dimethylformamide • Emulsifier: alkylaryl polyglycol ether
(§2) To produce a suitable preparation of active compound, 1 part by weight of active compound is dissolved using the stated parts by weight of solvent and made up with water containing an emulsifier concentration of 1000 ppm until the desired concentration is attained. To produce further test concentrations, the preparation is diluted with emulsifier-containing water.
Leaf discs of maize (Zea mays) are sprayed with an active compound preparation of the desired concentration and, after drying, populated with caterpillars of the armyworm (Spodoptera frugiperda).
After 7 days, the efficacy in % is determined. 100% means that all the caterpillars have been killed; 0% means that no caterpillars have been killed.

[3] = test system: Phaedon cochleariae; assay: Phaedon cochleariae - spray test; assay type: in vivo; conditions: after 7 days, larvae on Chinese cabbage leaf discs
Protocol: as §1, §2
After 7 days, the efficacy in % is determined. 100% means that all the beetle larvae have been killed; 0% means that no beetle larvae have been killed.

[4] = acidic range, pH 2.7, 0.1% aqueous formic acid/acetonitrile, 55° C.
[5] = neutral range, pH 7.8, value in preparation example text, read-out: log P (neutral)
[6] = acidic range, pH 2.7, 0.1% aqueous formic acid/acetonitrile, 55° C., read-out: LOGP_HCOOH
[7] = acidic range, pH 2.7, value in preparation example text, read-out: log P (acidic)

Row | Compound | LOGP_HCOOH [1, 4] | efficacy [2] [%] | LOGP_NEUTRAL ([1]; neutral range, 55° C.) | efficacy ([3]; 500 g/ha) [%] | other results
1 | CCSc1ccn2c(SCC)c(-c3nc4cc(C(F)(F)F)ccc4n3C)nc2c1 [Example I-32] | 4.23 |  |  |  | 
2 | CCSc1c(-c2nc3cc(C(F)(F)F)ccc3n2C)nc2ccc(C(F)(F)F)cn12 [Example I-28] | 4.47 | 100 |  |  | 
3 | CCOC(=O)c1nc2ccccn2c1SCC [XXII-1, Ethyl 3-(ethylsulphanyl)imidazo[1,2-a]pyridine-2-carboxylate] |  |  |  |  | chromatographic logP [1, 5]: 2.05
4 | CCSc1c(-c2nc3cc(C(F)(F)F)ncc3n2C)nc2c(Cl)cccn12 [Example I-14] | 3.33 |  | 3.34 |  | 
5 | CCS(=O)(=O)c1c(-c2nc3cc(C(F)(F)F)cnc3s2)nc2ccccn12 [Example I-51] | 3.21 |  | 3.20 |  | 
6 | CCS(=O)(=O)c1c(-c2nc3cc(C(F)(F)F)cnc3o2)nc2cc(C(F)(F)F)ccn12 [Example I-49] | 3.53 | 100 |  | 100 | 
7 | CCSc1c(-c2nc3cc(C(F)(F)F)cnc3o2)nc2ccc(C(F)(F)F)cn12 [Example I-58] | 4.14 |  |  |  | 
8 | CCSc1c(-c2nc3cc(C(F)(F)F)cnc3o2)nc2ccccn12 [Example I-60, 2-[3-(Ethylsulphanyl)imidazo[1,2-a]pyridin-2-yl]-6-(trifluoromethyl) [1,3]oxazolo[5,4-b]pyridine] |  |  | 3.15 |  | chromatographic logP [1, 6]: 3.2; chromatographic logP [1, 5]: 3.15
9 | CCS(=O)(=O)c1c(-c2nc3cc(C(F)(F)F)ccc3s2)nc2ccccn12 [Example I-43] | 3.60 |  |  |  | efficacy ([3]; 100 g/ha): 83%
10 | O=C(O)c1nc2cc(C(F)(F)F)ccn2c1Cl [III-1, 3-Chloro-7-(trifluoromethyl)imidazo[1,2-a]pyridine-2-carboxylic acid] |  |  |  |  | chromatographic logP [1, 7]: 1.5
11 | CCSc1c(-c2nc3cc(C(F)(F)F)ccc3n2C)nc2ccccn12 [Example I-9] | 3.25 |  | 3.41 | 100 | 
12 | CCSc1c(-c2nc3cc(C(F)(F)F)ncc3n2C)nc2cc(C(F)(F)F)ccn12 [Example I-16] | 3.80 | 100 | 3.80 | 100 | 
13 | CCS(=O)(=O)c1c(-c2nc3cc(C(F)(F)F)ccc3n2C)nc2ccc(Cl)cn12 [Example I-42] | 3.34 | 100 |  | 100 | 
14 | CCS(=O)(=O)c1c(-c2nc3cc(C(F)(F)F)ccc3o2)nc2ccccn12 [Example I-12] | 2.92 | 83 | 2.94 | 83 | 
15 | CCSc1c(-c2nc3cc(C(F)(F)F)ccc3n2C)nc2cccc(C)n12 [Example I-26] | 3.35 |  |  | 83 | 
16 | CCSc1c(-c2nc3cc(C(F)(F)F)ccc3n2C)nc2cccc(C(F)(F)F)n12 [Example I-27] | 4.09 |  |  |  | 
17 | CCSc1c(-c2nc3cc(C(F)(F)F)ncc3n2C)nc2ccc(C(F)(F)F)cn12 [Example I-5] | 3.81 | 100 | 3.75 |  | 
18 | CCSc1c(-c2nc3cc(C(F)(F)F)ccc3n2C)nc2ccc(C)cn12 [Example I-38] | 3.57 |  |  |  | 
19 | CCS(=O)(=O)c1c(-c2nc3cc(C(F)(F)F)cnc3o2)nc2ccc(C(F)(F)F)cn12 [Example I-47] | 3.51 | 83 |  | 100 | 
20 | CC[S+]([O-])c1c(-c2nc3cc(C(F)(F)F)ncc3n2C)nc2c(C(F)(F)F)cccn12 (stereo not drawn) [Example I-25] | 3.29 | 100 | 3.21 | 100 | 

Row | Compound | LOGP_HCOOH [1, 4] | efficacy [2] [%] | LOGP_NEUTRAL ([1]; neutral range, 55° C.) | efficacy ([3]; 500 g/ha) [%] | other results
21 | CCSc1c(C(=O)Nc2cc(C(F)(F)F)cnc2Cl)nc2ccccn12 [XXVI-1, N-[2-Chloro-5-(trifluoromethyl)pyridin-3-yl]-3-(ethylsulphanyl)imidazo[1,2-a]pyridine-2-carboxamide] |  |  |  |  | chromatographic logP [1, 5]: 4.39
22 | CCSc1c(-c2nc3cc(C(F)(F)F)ccc3n2C)nc2ccc(Cl)cn12 [Example I-29] | 4.12 | 100 |  | 100 | 
23 | CC[S+]([O-])c1c(-c2nc3cc(C(F)(F)F)ncc3n2C)nc2ccc(OC)cn12 (stereo not drawn) [Example I-55] | 2.54 |  | 2.48 |  | 
24 | CCS(=O)(=O)c1cccn2c(S(=O)(=O)CC)c(-c3nc4cc(C(F)(F)F)ncc4n3C)nc12 [Example I-39] | 2.30 | 100 | 2.29 | 100 | 
25 | CCSc1c(-c2nc3cc(C(F)(F)F)ncc3n2C)nc2ccc(Cl)cn12 [Example I-3] | 3.59 | 100 |  |  | 
26 | CCSc1c(-c2nc3cc(C(F)(F)F)cnc3o2)nc2cc(C(F)(F)F)ccn12 [Example I-50] | 4.14 | 100 |  | 100 | 
27 | CCSc1c(-c2nc3cc(C(F)(F)F)ccc3n2C)nc2cc(C(F)(F)F)ccn12 [Example I-30] | 4.50 | 100 |  | 83 | 
28 | CCS(=O)(=O)c1c(C(=O)O)nc2ccccn12 [XXIII-1, 3-(Ethylsulphonyl)imidazo[1,2-a]pyridine-2-carboxylic acid] |  |  |  |  | chromatographic logP [1, 7]: 0.54
29 | CCSc1c(-c2nc3cc(C(F)(F)F)cnc3o2)nc2cccc(C(F)(F)F)n12 [Example I-57] | 4.11 |  |  |  | 
30 | CCS(=O)(=O)c1c(-c2nc3cc(C(F)(F)F)ccc3n2C)nc2ccc(C(F)(F)F)cn12 [Example I-36] | 3.70 | 100 |  | 100 | 
31 | Cn1c(-c2nc3ccccn3c2Cl)nc2cc(C(F)(F)F)ncc21 [Example V-1, 2-(3-Chloroimidazo[1,2-a]pyridin-2-yl)-3-methyl-6-(trifluoromethyl)imidazo[4,5-c]pyridine] |  |  |  |  | chromatographic logP [1, 5]: 2.38
32 | CCSc1cccc2nc(-c3nc4cc(C(F)(F)F)ccc4n3C)c(SCC)n12 [Example I-31] | 3.95 |  |  |  | 
33 | CCOC(=O)c1nc2ccccn2c1S(=O)(=O)CC [XXIV-1, Ethyl 3-(ethylsulphonyl)imidazo[1,2-a]pyridine-2-carboxylate] |  |  |  |  | chromatographic logP [1, 5]: 1.52
34 | CCS(=O)(=O)c1c(-c2nc3cc(C(F)(F)F)cnc3o2)nc2ccc(C)cn12 [Example I-56] | 2.89 |  |  |  | 
35 | CCS(=O)(=O)c1c(-c2nc3cc(C(F)(F)F)ncc3n2C)nc2c(C(F)(F)F)cccn12 [Example I-24] | 2.92 | 100 | 2.90 | 100 | 
36 | CCS(=O)(=O)c1c(-c2nc3cc4c(cc3[nH]2)OC(F)(F)O4)nc2ccccn12 [Example I-40, 6-[3-(Ethylsulphonyl)imidazo[1,2-a]pyridin-2-yl]-2,2-difluoro-5H-[1,3]dioxolo[4,5-f]benzimidazole] |  |  | 2.59 | 100 | chromatographic logP [1, 6]: 2.51; chromatographic logP [1, 5]: 2.59
37 | CCSc1cccn2c(SCC)c(-c3nc4cc(C(F)(F)F)ncc4n3C)nc12 [Example I-15] | 3.99 |  | 3.93 |  | 
38 | CCSc1c(-c2nc3cc(C(F)(F)F)ccc3n2C)nc2cc(C)ccn12 [Example I-37] | 3.41 |  |  |  | 
39 | CCSc1c(-c2nc3cc(C(F)(F)F)ncc3n2C)nc2cccc(C(F)(F)F)n12 [Example I-20] | 3.50 |  |  |  | 
40 | CCSc1c(-c2nc3cc(C(F)(F)F)ncc3n2C)nc2ccc(C)cn12 [Example I-45] | 3.20 |  | 3.22 |  | 
